From patent US11383241B2, “Mechano-node pore sensing” (The Regents of the University of California, priority 2017, dated 2022)

Experiments:
Type in all cases: cell-based, human
MCF-7 cells = assay: mechano-NPS mechanical phenotyping of Latrunculin-treated MCF-7 cells; conditions: for cellular deformation in the transverse direction (δdeform) compared to control: one hour at 37° C.; for cellular deformation in the transverse direction (δdeform) compared to control / wCDI (whole cell deformability index) compared to untreated control cells: strain εavg˜0.3; for treated cells that instantaneously recover from deformation: ΔTr˜0 ms, untreated 38.3%
Description: (§1) Platform design, including geometry and sizing, may be configured and adapted to target indications, such as cell type and size range. In this example, the platform comprises of a 30 μm-high microfluidic channel embedded in a polydimethylsiloxane (PDMS) mold bonded to a glass substrate with pre-defined platinum (Pt) electrodes and gold (Au) contact pads (FIG. 1a). The central part of the channel, which we refer to as the “contraction channel”, is long (2055 μm) and narrow (10 or 12 μm-wide) and flanked on either side by a series of nodes and pores that are 85 μm and 25 μm wide, respectively (FIG. 1a, inset). The length of the contraction channel was chosen to provide sufficient time (˜30 ms) over which a cell experiences constant applied strain. The node and pore dimensions were chosen for sufficient signal-to noise ratios. Given the flexibility and ease of device design and fabrication, different contraction channel lengths and node and pore dimensions could be employed. Filters that are 25 μm in width (the width chosen based on the size range of cells measured in these studies, ˜15-20 μm in diameter) are included at the entrance of the microfluidic channel in order to remove cellular clusters that may otherwise clog the device. Applying a constant DC voltage (1 V) across the channel, we employ a four-terminal measurement technique^37-40 to measure the current pulses caused by cells transiting across the microfluidic channel when a non-pulsatile pressure of ˜21 kPa (determined by a commercial pressure gauge, SSI Technologies) is utilized (FIG. 1b and FIG. 2). After low-pass filtering all current versus time data, we employ custom-written software to extract both the magnitude and duration of each current sub-pulse (ΔInp, ΔIc, ΔTcont, and ΔTr in FIG. 1b; FIG. 3).
(§2) We disrupted actin polymerization with Latrunculin A and B (LatA and LatB, Enzo Life Sciences)^50. Prior to deformability measurements, MCF-7 and MCF-10A cells were incubated with 2.5 or 5 μg/mL LatA or LatB in each cell's respective growth medium for one hour at 37° C. and 5% CO2^29, 51, 52. Cells were then released from culture flasks with 0.25% trypsin/EDTA, rinsed once with PBS, centrifuged at […], and re-suspended in PBS at a concentration of ˜100,000 cells/mL. […] They were then permeabilized with 0.1% Triton-X 100 (Sigma-Aldrich) in PBS for 5 min. Cell nuclei and F-actin were then counter-stained with 4′,6-diamidino-2-phenylindole (DAPI, Sigma-Aldrich, 10236276001) and rhodamine phalloidin (Thermo Fisher Scientific, R415), respectively, per manufacturer's protocol, and then imaged with a Zeiss LSM710 confocal microscope.
(§3) To determine De, we measure polystyrene microspheres of known size with the microfluidic channel. Using the values of ΔI/I arising from the microspheres, along with the known values of L and d (the size of the microspheres in this instance), we can numerically solve for De in Equation (5). Once De is known, we can subsequently determine Dcell of a screened cell by numerically solving for d in Equation (5) using the obtained values of ΔInp/I. We can also determine the volume of the deformed cell, Vdeform, by the relationship^39, 57, 58, ΔIc/I˜Vdeform/Vcontraction, where Vcontraction is the volume of the contraction channel. To calculate Ldeform, we assume the cell undergoes an isometric deformation in the direction of both the channel's longitudinal axis and channel height, resulting in an oblate-spheroid shape. From the relationship between the volume and major radius of the oblate spheroid, Vdeform=πwcLdeform^2/6 where wc is the contraction-channel width, we can determine Ldeform from ΔIc/I. We quantify the transverse deformation of the cell, δdeform=Ldeform/Dcell, as it transits the contraction channel.
(§4) As a cell traverses through each section of the channel, the duration of the resulting sub-pulse produced by a cell corresponds to the cell's transit time (ΔT) through that part of the channel. […]

MCF-10A cells = assay: mechano-NPS mechanical phenotyping of Latrunculin-treated MCF-10A cells; conditions: for cellular deformation in the transverse direction (δdeform) compared to control: one hour at 37° C.; for cellular deformation in the transverse direction (δdeform) compared to control / wCDI (whole cell deformability index) compared to untreated control cells: strain εavg˜0.3; for treated cells that do not recover within the 40 ms time window (prolonged recovery): ΔTr>40 ms, untreated 9.7%
Description: as §1, §2, §3, §4

F-actin filaments = assay: F-actin staining (rhodamine phalloidin) and confocal microscopy of treated cells; conditions: MCF-7 and MCF-10A cells, after one hour incubation; more so with Lat-A than with Lat-B
Experimental: as §2

Structure (SMILES) | change in wCDI as a function of treatment concentration (MCF-7 cells; 2.5 or 5 μg/mL) | cellular deformation in the transverse direction (δdeform) compared to control (MCF-7 cells; 2.5 or 5 μg/mL) | wCDI (whole cell deformability index) compared to untreated control cells (MCF-7 cells) | treated cells that instantaneously recover from deformation (MCF-7 cells) | change in wCDI as a function of treatment concentration (MCF-10A cells; 2.5 or 5 μg/mL) | cellular deformation in the transverse direction (δdeform) compared to control (MCF-10A cells; 2.5 or 5 μg/mL) | wCDI (whole cell deformability index) compared to untreated control cells (MCF-10A cells) | treated cells that do not recover within the 40 ms time window (prolonged recovery) (MCF-10A cells) | F-actin filaments by staining and confocal microscopy (F-actin filaments)
C/C1=C/C(=O)O[C@@H]2C[C@@H](CC[C@H](C)/C=C\C=C\CC1)O[C@@](O)([C@@H]1CSC(=O)N1)C2 [LatA, Latrunculin A] | increased with concentration | significantly reduced | increased | 8.1% | increased with concentration | significantly reduced | increased | 66.7% | inhibited
C/C1=C/C(=O)O[C@@H]2C[C@@H](CC[C@H](C)/C=C\CC1)O[C@@](O)([C@@H]1CSC(=O)N1)C2 [LatB, Latrunculin B] |  | significantly reduced | increased | 24.2% |  | significantly reduced | no detectable change | 41.4% | inhibited
